Assay results as given in patent US8586550B2, “Thiazole derivatives as SGLT2 inhibitors and pharmaceutical composition comprising same” (Green Cross Corporation, priority 2010, dated 2013).

These compounds were tested against T1, Human SGLT2 (hSGLT2) (Homo sapiens, UniProt P31639) (assay: Sodium-dependent glucose transport (14C-AMG uptake) assay in CHO cells stably expressing hSGLT2). Settings: CHO cells expressing hSGLT2, 14C-AMG uptake, 37° C. for 2 h; single determinations; read-out: hSGLT2 Inhibitory Activity IC50.
T1 construct: expressed in transfected cells
T1 sequence (P31639 1-672): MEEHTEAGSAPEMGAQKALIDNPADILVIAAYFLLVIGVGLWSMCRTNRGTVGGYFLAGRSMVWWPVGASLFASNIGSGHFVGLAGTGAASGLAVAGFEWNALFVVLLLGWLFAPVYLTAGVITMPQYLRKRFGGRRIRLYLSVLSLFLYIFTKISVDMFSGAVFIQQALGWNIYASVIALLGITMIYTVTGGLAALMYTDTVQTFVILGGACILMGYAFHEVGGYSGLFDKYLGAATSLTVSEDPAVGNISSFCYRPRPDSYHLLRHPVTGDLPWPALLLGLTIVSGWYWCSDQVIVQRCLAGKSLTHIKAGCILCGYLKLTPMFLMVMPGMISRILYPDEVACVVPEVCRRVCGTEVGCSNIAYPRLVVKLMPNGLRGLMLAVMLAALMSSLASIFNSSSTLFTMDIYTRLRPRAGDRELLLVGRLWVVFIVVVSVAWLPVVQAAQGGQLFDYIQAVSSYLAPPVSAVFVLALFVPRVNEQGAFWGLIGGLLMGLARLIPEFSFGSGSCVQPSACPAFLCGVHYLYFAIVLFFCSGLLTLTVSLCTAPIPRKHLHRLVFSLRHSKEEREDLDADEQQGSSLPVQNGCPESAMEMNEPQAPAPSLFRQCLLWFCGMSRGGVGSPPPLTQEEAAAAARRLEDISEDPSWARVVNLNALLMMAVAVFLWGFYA
Format: cell-based
Text: Cloning and Cell Line Construction for Human SGLT2
Human SGLT2 (hSGLT2) gene was amplified by PCR from cDNA-Human Adult Normal Tissue Kidney (Invitrogen). The hSGLT2 sequence was cloned into pcDNA3.1(+) for mammalian expression and were stably transfected into chinese hamster ovary (CHO) cells. SGLT2-expressing clones were selected based on resistance to G418 antibiotic (Geneticin) and activity in the ^14C-α-methyl-D-glucopyranoside (^14C-AMG) uptake assay.
Inhibitory Effects on Human SGLT2 Activities
For sodium-dependent glucose transport assay, cells expressing hSGLT2 were seeded into a 96-well culture plate at a density of 5×10^4 cells/well in RPMI medium 1640 containing 10% fetal bovine serum. The cells were used 1 day after plating. They were incubated in pretreatment buffer (10 mM HEPES, 5 mM Tris, 140 mM choline chloride, 2 mM KCl, 1 mM CaCl2, and 1 mM MgCl2, pH 7.4) at 37° C. for 10 min. They were then incubated in uptake buffer (10 mM HEPES, 5 mM Tris, 140 mM NaCl, 2 mM KCl, 1 mM CaCl2, 1 mM MgCl2, and 1 mM ^14C-nonlabeled AMG, pH 7.4) containing ^14C-labeled (8 μM) and inhibitor or dimethylsulfoxide (DMSO) vehicle at 37° C. for 2 h. Cells were washed twice with washing buffer (pretreatment buffer containing 10 mM AMG at room temperature) and then the radioactivity was measured using a liquid scintillation counter. IC50 was determined by nonlinear regression analysis using GraphPad PRISM [Katsuno, K. et al. J. Pharmacol. Exp. Ther. 2007, 320, 323-330; Han, S. et al. Deabetes, 2008, 57, 1723-1729].

Row | Structure (SMILES) | IC50 [µM]
1 | Cc1ccc([C@@H]2O[C@H](CO)[C@@H](O)[C@H](O)[C@H]2O)cc1Cc1ncc(-c2ccccc2)s1 [Example 35, (2R,3S,4R,5R,6S)-2-(Hydroxymethyl)-6-(4-methyl-3-((5-phenylthiazol-2-yl)methyl)phenyl)tetrahydro-2H-pyran-3,4,5-triol] | 0.00417
2 | Cc1ccc(-c2cnc(Cc3cc([C@@H]4O[C@H](CO)[C@@H](O)[C@H](O)[C@H]4O)ccc3C)s2)cc1 [Example 36, (2R,3S,4R,5R,6S)-2-(Hydroxymethyl)-6-(4-methyl-3-((5-p-tolylthiazol-2-yl)methyl)phenyl)tetrahydro-2H-pyran-3,4,5-triol] | 0.0215
3 | Cc1ccc([C@@H]2O[C@H](CO)[C@@H](O)[C@H](O)[C@H]2O)cc1Cc1ncc(-c2ccc(F)cc2)s1 [Example 37, (2S,3R,4R,5S,6R)-2-(3-((5-(4-Fluorophenyl)thiazol-2-yl)methyl)-4-methylphenyl)-6-(hydroxymethyl)tetrahydro-2H-pyran-3,4,5-triol] | 0.0098
4 | Cc1ccc([C@@H]2O[C@H](CO)[C@@H](O)[C@H](O)[C@H]2O)cc1Cc1ncc(-c2ccc(Cl)cc2)s1 [Example 38, (2S,3R,4R,5S,6R)-2-(3-((5-(4-Chlorophenyl)thiazol-2-yl)methyl)-4-methylphenyl)-6-(hydroxymethyl)tetrahydro-2H-pyran-3,4,5-triol] | 0.0256
5 | Cc1ccc([C@@H]2O[C@H](CO)[C@@H](O)[C@H](O)[C@H]2O)cc1Cc1ncc(Cc2ccccc2)s1 [Example 39, (2S,3R,4R,5S,6R)-2-(3-((5-Benzylthiazol-2-yl)methyl)-4-methylphenyl)-6-(hydroxymethyl)tetrahydro-2H-pyran-3,4,5-triol] | 0.176
6 | OC[C@H]1O[C@@H](c2ccc(F)c(Cc3ncc(-c4ccco4)s3)c2)[C@H](O)[C@@H](O)[C@@H]1O [Example 40, (2S,3R,4R,5S,6R)-2-(4-Fluoro-3-((5-(furan-2-yl)thiazol-2-yl)methyl)phenyl)-6-(hydroxymethyl)tetrahydro-2H-pyran-3,4,5-triol] | 0.00611
7 | OC[C@H]1O[C@@H](c2ccc(F)c(Cc3ncc(-c4ccoc4)s3)c2)[C@H](O)[C@@H](O)[C@@H]1O [Example 41, (2S,3R,4R,5S,6R)-2-(4-Fluoro-3-((5-(furan-3-yl)thiazol-2-yl)methyl)phenyl)-6-(hydroxymethyl)tetrahydro-2H-pyran-3,4,5-triol] | 0.0305
8 | OC[C@H]1O[C@@H](c2ccc(F)c(Cc3ncc(-c4cccs4)s3)c2)[C@H](O)[C@@H](O)[C@@H]1O [Example 42, (2S,3R,4R,5S,6R)-2-(4-Fluoro-3-((5-(thiophen-2-yl)thiazol-2-yl)methyl)phenyl)-6-(hydroxymethyl)tetrahydro-2H-pyran-3,4,5-triol] | 0.0254
9 | OC[C@H]1O[C@@H](c2ccc(F)c(Cc3ncc(-c4ccccc4)s3)c2)[C@H](O)[C@@H](O)[C@@H]1O [Example 44, (2S,3R,4R,5S,6R)-2-(4-Fluoro-3-((5-phenylthiazol-2-yl)methyl)phenyl)-6-(hydroxymethyl)tetralrydro-2H-pyran-3,4,5-triol] | 0.0308
10 | OC[C@H]1O[C@@H](c2ccc(F)c(Cc3ncc(-c4ccc(F)cc4)s3)c2)[C@H](O)[C@@H](O)[C@@H]1O [Example 45, (2S,3R,4R,5S,6R)-2-(4-Fluoro-3-((5-(4-fluorophenyl)thiazol-2-yl)methyl)phenyl)-6-(hydroxymethyl)tetrahydro-2H-pyran-3,4,5-triol] | 0.0477
11 | OC[C@H]1O[C@@H](c2ccc(Br)c(Cc3ncc(-c4ccco4)s3)c2)[C@H](O)[C@@H](O)[C@@H]1O [Example 46, (2S,3R,4R,5S,6R)-2-(4-Bromo-3-((5-(furan-2-yl)thiazol-2-yl)methyl)phenyl)-6-(hydroxymethyl)-tetrahydro-2H-pyran-3,4,5-triol] | 0.00189
12 | OC[C@H]1O[C@@H](c2ccc(C(F)(F)F)c(Cc3ncc(-c4cccs4)s3)c2)[C@H](O)[C@@H](O)[C@@H]1O [Example 49, (2R,3S,4R,5R,6S)-2-(Hydroxymethyl)-6-(3-((5-(thiophen-2-yl)thiazol-2-yl)methyl)-4-(trifluoromethyl)phenyl)tetrahydro-2H-pyran-3,4,5-triol] | 0.0169
